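Cells were grown in 96-well plates and exposed to each compound for 48 hours at five concentrations; endpoints were interpolated linearly between bracketing concentrations, or set to the highest concentration if not reached. GI50: concentration for 50% inhibition of growth.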 Activity calls are given as the source filed them. Rule as the data show it: active = GI50 up to about 1.1 µM and inactive = higher.
Legend:
Experiment in all cases: growth of human tumour cells (NCI), 48 h
786-0 = system: 786-0
A498 = system: A498
A549 = system: A549
ACHN = system: ACHN
CAKI-1 = system: CAKI-1
CCRF-CEM = system: CCRF-CEM
COLO 205 = system: COLO 205
DLD-1 = system: DLD-1
DMS-114 = system: DMS-114
DMS-273 = system: DMS-273
EKVX = system: EKVX
HCC 2998 = system: HCC 2998
HCT-116 = system: HCT-116
HCT-15 = system: HCT-15
HL-60 = system: HL-60
HOP-18 = system: HOP-18
HOP-62 = system: HOP-62
HOP-92 = system: HOP-92
HT-29 = system: HT-29
IGROV-1 = system: IGROV-1
K562 = system: K562
KM-20L2 = system: KM-20L2
KM12 = system: KM12
LXFL 529 = system: LXFL 529
M14 = system: M14
M19-MEL = system: M19-MEL
MOLT-4 = system: MOLT-4
Malme-3M = system: Malme-3M
NCI-H226 = system: NCI-H226
NCI-H23 = system: NCI-H23
NCI-H460 = system: NCI-H460
NCI-H522 = system: NCI-H522
OVCAR-3 = system: OVCAR-3
OVCAR-4 = system: OVCAR-4
OVCAR-5 = system: OVCAR-5
OVCAR-8 = system: OVCAR-8
RPMI-8226 = system: RPMI-8226
RXF 393 = system: RXF 393
RXF 631 = system: RXF 631
SF-268 = system: SF-268
SF-295 = system: SF-295
SF-539 = system: SF-539
SK-MEL-2 = system: SK-MEL-2
SK-MEL-5 = system: SK-MEL-5
SK-OV-3 = system: SK-OV-3
SN12C = system: SN12C
SNB-19 = system: SNB-19
SNB-75 = system: SNB-75
SNB-78 = system: SNB-78
SR = system: SR
SW-620 = system: SW-620
TK-10 = system: TK-10
U-251 = system: U-251
UACC-257 = system: UACC-257
UACC-62 = system: UACC-62
UO-31 = system: UO-31
XF498 = system: XF498
LOX IMVI = system: LOX IMVI
SK-MEL-28 = system: SK-MEL-28

N#CN1CC[C@@H]2CC3(CCC2C1)OCCO3 (stereo partly specified)
GI50 (786-0): > 100 µM (inactive)
GI50 (A498): > 100 µM (inactive)
GI50 (A549): > 100 µM (inactive)
GI50 (ACHN): > 100 µM (inactive)
GI50 (CAKI-1): > 100 µM (inactive)
GI50 (CCRF-CEM): > 100 µM (inactive)
GI50 (COLO 205): > 100 µM (inactive)
GI50 (DLD-1): > 100 µM (inactive)
GI50 (DMS-114): > 100 µM (inactive)
GI50 (DMS-273): > 100 µM (inactive)
GI50 (EKVX): > 100 µM (inactive)
GI50 (HCC 2998): > 100 µM (inactive)
GI50 (HCT-116): > 100 µM (inactive)
GI50 (HCT-15): > 100 µM
GI50 (HL-60): > 100 µM (inactive)
GI50 (HOP-18): > 100 µM (inactive)
GI50 (HOP-62): > 100 µM (inactive)
GI50 (HOP-92): > 100 µM (inactive)
GI50 (HT-29): > 100 µM (inactive)
GI50 (IGROV-1): > 100 µM (inactive)
GI50 (K562): > 100 µM (inactive)
GI50 (KM-20L2): > 100 µM (inactive)
GI50 (KM12): > 100 µM (inactive)
GI50 (LXFL 529): > 100 µM (inactive)
GI50 (M14): > 100 µM (inactive)
GI50 (M19-MEL): > 100 µM (inactive)
GI50 (MOLT-4): > 100 µM (inactive)
GI50 (Malme-3M): > 100 µM (inactive)
GI50 (NCI-H226): > 100 µM (inactive)
GI50 (NCI-H23): > 100 µM (inactive)
GI50 (NCI-H460): > 100 µM (inactive)
GI50 (NCI-H522): < 0.01 µM (active)
GI50 (OVCAR-3): > 100 µM (inactive)
GI50 (OVCAR-4): > 100 µM (inactive)
GI50 (OVCAR-5): > 100 µM (inactive)
GI50 (OVCAR-8): > 100 µM (inactive)
GI50 (RPMI-8226): > 100 µM (inactive)
GI50 (RXF 393): > 100 µM (inactive)
GI50 (RXF 631): > 100 µM (inactive)
GI50 (SF-268): > 100 µM (inactive)
GI50 (SF-295): > 100 µM (inactive)
GI50 (SF-539): > 100 µM (inactive)
GI50 (SK-MEL-2): > 100 µM (inactive)
GI50 (SK-MEL-5): > 100 µM (inactive)
GI50 (SK-OV-3): > 100 µM (inactive)
GI50 (SN12C): > 100 µM (inactive)
GI50 (SNB-19): > 100 µM (inactive)
GI50 (SNB-75): > 100 µM (inactive)
GI50 (SNB-78): > 100 µM (inactive)
GI50 (SR): > 100 µM (inactive)
GI50 (SW-620): > 100 µM (inactive)
GI50 (TK-10): > 100 µM (inactive)
GI50 (U-251): > 100 µM (inactive)
GI50 (UACC-257): > 100 µM (inactive)
GI50 (UACC-62): > 100 µM (inactive)
GI50 (UO-31): > 100 µM (inactive)
GI50 (XF498): > 100 µM (inactive)

CC1OC(n2cc(F)c(=O)[nH]c2=O)C=CC1O (stereo unspecified)
GI50 (786-0): > 100 µM (inactive)
GI50 (A498): > 100 µM (inactive)
GI50 (A549): > 100 µM (inactive)
GI50 (ACHN): > 100 µM (inactive)
GI50 (CAKI-1): > 100 µM (inactive)
GI50 (CCRF-CEM): > 51.3 µM (inactive)
GI50 (COLO 205): > 100 µM (inactive)
GI50 (DLD-1): > 100 µM (inactive)
GI50 (DMS-114): > 100 µM (inactive)
GI50 (DMS-273): > 100 µM (inactive)
GI50 (EKVX): > 100 µM (inactive)
GI50 (HCC 2998): > 100 µM (inactive)
GI50 (HCT-116): > 100 µM (inactive)
GI50 (HCT-15): > 100 µM
GI50 (HL-60): 37.2 µM (inactive)
GI50 (HOP-18): > 100 µM (inactive)
GI50 (HOP-62): > 100 µM (inactive)
GI50 (HOP-92): > 100 µM (inactive)
GI50 (HT-29): > 100 µM (inactive)
GI50 (IGROV-1): > 100 µM (inactive)
GI50 (K562): > 57.8 µM (inactive)
GI50 (KM-20L2): > 100 µM (inactive)
GI50 (KM12): > 100 µM (inactive)
GI50 (LOX IMVI): > 43.2 µM (inactive)
GI50 (LXFL 529): > 100 µM (inactive)
GI50 (M14): > 100 µM (inactive)
GI50 (M19-MEL): > 100 µM (inactive)
GI50 (MOLT-4): > 100 µM (inactive)
GI50 (Malme-3M): > 100 µM (inactive)
GI50 (NCI-H226): > 100 µM (inactive)
GI50 (NCI-H23): > 100 µM (inactive)
GI50 (NCI-H460): > 100 µM (inactive)
GI50 (NCI-H522): > 100 µM (inactive)
GI50 (OVCAR-3): > 100 µM (inactive)
GI50 (OVCAR-4): > 100 µM (inactive)
GI50 (OVCAR-5): > 100 µM (inactive)
GI50 (OVCAR-8): > 100 µM (inactive)
GI50 (RPMI-8226): > 92.3 µM (inactive)
GI50 (RXF 393): > 100 µM (inactive)
GI50 (RXF 631): > 100 µM (inactive)
GI50 (SF-268): > 100 µM (inactive)
GI50 (SF-295): > 100 µM (inactive)
GI50 (SF-539): > 100 µM (inactive)
GI50 (SK-MEL-28): > 100 µM (inactive)
GI50 (SK-MEL-2): > 100 µM (inactive)
GI50 (SK-MEL-5): > 100 µM (inactive)
GI50 (SK-OV-3): > 100 µM (inactive)
GI50 (SN12C): > 100 µM (inactive)
GI50 (SNB-19): > 100 µM (inactive)
GI50 (SNB-75): > 100 µM (inactive)
GI50 (SNB-78): > 100 µM (inactive)
GI50 (SR): > 100 µM (inactive)
GI50 (SW-620): > 46 µM (inactive)
GI50 (TK-10): > 100 µM (inactive)
GI50 (U-251): > 100 µM (inactive)
GI50 (UACC-257): > 100 µM (inactive)
GI50 (UACC-62): > 100 µM (inactive)
GI50 (UO-31): > 100 µM (inactive)
GI50 (XF498): > 100 µM (inactive)

Source: ChEMBL document CHEMBL1201862, “PubChem BioAssay data set” (2004)
